Test system: CD8+ T cells of HLA-A24 healthy donors
Test: Primary CTL induction with peptide-pulsed autologous DCs, cytotoxicity tested on peptide-pulsed TISI
Type: cell-based, human
Settings: data not shown

## CC(C)C[C@H](NC(=O)[C@H](CC(C)C)NC(=O)[C@H](C)NC(=O)[C@H](CC(C)C)NC(=O)[C@H](CC(C)C)NC(=O)[C@H](CC(C)C)NC(=O)CNC(=O)[C@H](Cc1c[nH]c2ccccc12)NC(=O)[C@@H](N)CCCNC(=N)N)C(=O)O [HE1]
  CTL induction activity (cytotoxicity of peptide-stimulated CTLs against the peptide-pulsed TISI): showed the cytotoxicity against the peptide- pulsed TISI
